Results: patent publication US8933067B2, “Pyrido and pyrimidopyrimidine derivatives as anti-profilerative agents” (Janssen Pharmaceutica N.V., priority 2003, dated 2015)

Legend:
[1] = target: T1, EGFR-kinase domain (Homo sapiens, UniProt P00533); assay: In vitro inhibition of EGFR (Flash Plate or glass-fiber filter kinase assay); format: biochemical; settings: pIC50; read-out: In vitro kinase activity assay.(C1): IC50 (converted)
T1 construct: 0.35 μg/well poly(GT)biotin and 0.5 μg EGFR-kinase domain/well
T1 sequence (P00533 712-979 limits assumed): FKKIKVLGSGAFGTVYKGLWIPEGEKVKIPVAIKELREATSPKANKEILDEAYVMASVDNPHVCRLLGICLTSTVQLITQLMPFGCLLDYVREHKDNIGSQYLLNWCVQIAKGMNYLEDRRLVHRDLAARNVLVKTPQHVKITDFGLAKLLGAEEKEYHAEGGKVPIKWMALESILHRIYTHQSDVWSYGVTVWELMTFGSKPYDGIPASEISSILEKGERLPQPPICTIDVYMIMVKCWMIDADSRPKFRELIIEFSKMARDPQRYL
Protocol: The in vitro inhibition of EGFR was assessed using either the Flash Plate technology or the glass-fiber filter technology as described by Davies, S. P. et al., Biochem J. (2000), 351; p. 95-105. The Flash Plate technology is generally described by B. A. Brown et al. in High Throughput Screening (1997), p. 317-328. Editor(s): Devlin, John P. Publisher: Dekker, New York, N.Y.
In the Flash Plate EGFR kinase reaction assay, a kinase substrate consisting of biotinylated poly(L-glutamic acid-L-tyrosine) (poly(GT)biotin), is incubated with the aforementioned protein in the presence of (^33P) radiolabeled ATP. (^33P) phosphorylation of the substrate is subsequently measured as light energy emitted using a streptavidin-coated Flash Plate (PerkinElmer Life Sciences) by trapping and quantifying the binding of the biotin tagged and radiolabeled substrate.
The EGFR kinase reaction is performed at 30° C. for 60 minutes in a 96-well microtiter FlashPlate (PerkinElmer Life Sciences). For each of the tested compounds a full dose response 1.10^−6M to 1.10^−10M has been performed. IRESSA® and Tarceva™ (erlotinib) were used as reference compounds. The 100 μl reaction volume contains 54.5 mM TrisHCl pH 8.0, 10 mM MgCl2, 100 μM Na3VO4, 5.0 μM unlabeled ATP, 1 mM DTT, 0.009% BSA, 0.8 μCi AT^33P, 0.35 μg/well poly(GT)biotin and 0.5 μg EGFR-kinase domain/well.
The reaction is stopped by aspirating the reaction mixture and washing the plate 3× with 200 μl wash/stop buffer (PBS+100 mM EDTA). After the final wash step 200 μl of wash/stop buffer was added to each well and the amount of phosphorylated (^33P) Poly(GT)biotin determined by counting (30 sec/well) in a microtiterplate scintillation counter.
In the glass-fiber filter technology EGFR kinase reaction assay, a kinase substrate consisting of poly(L-glutamic acid-L-tyrosine) (poly(GT)), is incubated with the aforementioned protein in the presence of (^33P) radiolabeled ATP. (^33P) Phosporylation of the substrate is subsequently measured as radioactivity bound on a glassfiber-filter.
The EGFR kinase reaction is performed at 25° C. for 10 minutes in a 96-well microtiterplate. For each of the tested compounds a full dose response 1.10^−6M to 1.10^−10M has been performed. IRESSA® and Tarceva™ (erlotinib) were used as reference compounds. The 25 μl reaction volume contains 60 mM TrisHCl pH 7.5, 3 mM MgCl2, 3 mM Mn Cl2, 3 μM Na3VO4, 50 μg/ml PEG20000, 5.0 μM unlabeled ATP, 1 mM DTT, 0.1 μCi AT^33P, 62.5 ng/well poly(GT) and 0.5 μg EGFR-kinase domain/well.
The reaction is stopped by adding 5 μl of a 3% phosphoric acid solution. 10 μl of the reaction mixture is then spotted onto a Filtermat A filter (Wallac) and washed 3 times for 5 min. in 75 mM phosphoric acid and 1 time for 5 min. in methanol prior to drying and quantification on the Typhoon (Amersham) using a LE phosphorage storage screen.

[2] = test system: SKOV3 cells; assay: Serum starved, EGF stimulated proliferation assay on ovarian carcinoma SKOV3 cells (MTT); format: cell-based; settings: Homo sapiens, SK-OV-3; EGF 100 ng/ml, 72 hours, serum free; pIC50; read-out: SKOV3 cell (C2): IC50 (converted)
Protocol: The ovarian carcinoma cell line (SKOV3) was used in an epidermal growth factor stimulated cell proliferation assay, to assess the inhibitory effect of the compounds on EGF in whole cells.
In a first step the SKOV3 cells were incubated for 24 hours in the presence of 10% FCS serum. In the second step the cells were incubated with the compounds to be tested in a serum free condition (37° C. and 5% (v/v) CO2) and subsequently stimulated for 72 hours with EGF at a final concentration of 100 ng/ml. The effect of the compounds on the EGF stimulation was finally assessed in a standard MTT cell viability assay.

| IC50 [1] | IC50 [2] | melting point | Compound |
| --- | --- | --- | --- |
| 5.01 nM | 589 nM | – | Clc1ccc2c(c1)Nc1ncnc3ccc(nc13)NCCCCCCO2 [Compound 1, 7H,19H-4,6-ethanediylidenepyrimido[4,5-b][13,1,4,6]benzoxatriazacyclopentadecine, 17-chloro-8,9,10,11,12,13-hexahydro-] |
| 3.16 nM | > 10000 nM | > 260 °C | Clc1ccc2c(c1)Nc1ncnc3cnc(nc13)NCCCCCCO2 [Compound 2, 6,4-(nitrilometheno)pyrimido[4,5-b][13,1,4,6]benzoxatriazacyclopentadecine, 17-chloro-7,8,9,10,11,12,13,19-octahydro-] |
| 6.31 nM | 3160 nM | – | OCCCCCCNc1ccc2ncnc(Nc3cc(Cl)ccc3O)c2n1 [Intermediate 2, phenol, 4-chloro-2-[[6-[(6-hydroxyhexyl)amino]pyrido[3,2-d]pyrimidin-4-yl]amino]-] |
| 3.98 nM | 794 nM | – | OCCCCNc1ccc2ncnc(Nc3cc(Cl)ccc3O)c2n1 [Intermediate 3, phenol, 4-chloro-2-[[6-[(4-hydroxybutyl)amino]pyrido[3,2-d]pyrimidin-4-yl]amino]-] |
| 5.01 nM | 1580 nM | – | OCCCCCNc1ccc2ncnc(Nc3cc(Cl)ccc3O)c2n1 [Intermediate 4, phenol, 4-chloro-2-[[6-[(5-hydroxypentyl)amino]pyrido[3,2-d]pyrimidin-4-yl]amino]-] |
| 3.98 nM | 1000 nM | – | OCCCCCCNc1ncc2ncnc(Nc3cc(Cl)ccc3O)c2n1 [Intermediate 6, phenol, 4-chloro-2-[[6-[(6-hydroxyhexyl)amino]pyrimido[5,4-d]pyrimidin-4-yl]amino]-] |
